According to US20070281857A1, “FORMIC ACID AS AN HERBICIDE” (MARRONE ORGANIC INNOVATIONS, priority 2006, published 2007):
Where two headings read alike, the source gives them in different places.

What was measured:
dicots (radishes) = conditions: solution in water at 0.5% and 0.1%
Excerpt: (§1) Numerous natural compounds were screened for their ability to inhibit the germination of seeds. A single seed was placed in each well of a 96-well plate followed by a solution of each compound in water at both 0.5% and 0.1%. Germination was monitored at varying intervals, depending on the germination time in the control groups for the particular seed being used in the study.

monocots (wheat) = conditions: solution in water at 0.5% and 0.1%
Excerpt: as §1

[1] = tested on: Poa annua (annual bluegrass); conditions: one week, relative to control
Description: (§2) To further test the inhibitory effect of formic acid on germinating seeds, pots with 6-cm diameter were filled with 60 mL of silty clay loam soil passed through a 2-mm sieve, and five (5) seeds of either Taraxacum officinale (dandelion, representing a broadleaved weed) or Poa annua (annual bluegrass, representing a grass weed) were planted on the top. A solid form of the composition containing corn gluten meal granules (1-2 mm diameter) soaked in 0%, 5%, 10% or 20% formic acid solution and dried were placed on the top of the soil at rates 0.1, 0.25, 0.5 and 1.0 g/pot. The pots were kept at optimum water content under growth lights with a 12-h light/dark period at room temperature, and the number of germinated seeds was counted after one week.

[2] = tested on: Taraxacum officinale (dandelion); conditions: one week, relative to control
Description: as §2

[3] = tested on: radish (Raphanus sativus); conditions: spray, 1, 3 and 5% in water with 0.04% Tween 20
Description: (§3) The herbicidal effect of formic acid was compared with that of acetic acid in a greenhouse study using radish (Raphanus sativus) and wheat (Triticum aestivum) as test plants. Both formic acid and acetic acid were diluted in water at 1, 3, and 5%, and deionized water was used as a control. Tween 20 was added to each of the solutions at a rate 0.04% for use as a surfactant. Solutions were applied to plants using a small handheld sprayer. Plants were evaluated at 24- and 72-hours after treatment for the % control.

[4] = tested on: wheat (Triticum aestivum); conditions: 5%, spray
Description: as §3

[5] = 5% formic acid in corn gluten meal granules 1-2 mm, 0.1 g/pot
[6] = 5% formic acid in corn gluten meal granules 1-2 mm, 0.25 g/pot
[7] = 5% formic acid in corn gluten meal granules 1-2 mm, 0.5 g/pot
[8] = 5% formic acid in corn gluten meal granules 1-2 mm, 1 g/pot
[9] = 10% formic acid in corn gluten meal granules 1-2 mm, 0.1 g/pot
[10] = 10% formic acid in corn gluten meal granules 1-2 mm, 0.25 g/pot
[11] = 10% formic acid in corn gluten meal granules 1-2 mm, 0.5 g/pot
[12] = 10% formic acid in corn gluten meal granules 1-2 mm, 1 g/pot
[13] = 20% formic acid in corn gluten meal granules 1-2 mm, 0.1 g/pot
[14] = 20% formic acid in corn gluten meal granules 1-2 mm, 0.25 g/pot
[15] = 20% formic acid in corn gluten meal granules 1-2 mm, 0.5 g/pot
[16] = 20% formic acid in corn gluten meal granules 1-2 mm, 1 g/pot
[17] = 20% formic acid in corn gluten meal granules 1-2 mm, 1 g/pot, listed as formic acid

O=CO [Formic acid]
ability to inhibit germination of seeds (dicots (radishes)): inhibit germination of seeds | ability to inhibit germination of seeds (monocots (wheat)): inhibit germination of seeds | germination rate (%) annual bluegrass [1, 5]: 100% | germination rate (%) annual bluegrass [1, 6]: 82% | germination rate (%) annual bluegrass [1, 7]: 82% | germination rate (%) annual bluegrass [1, 8]: 82% | germination rate (%) annual bluegrass [1, 9]: 100% | germination rate (%) annual bluegrass [1, 10]: 100% | germination rate (%) annual bluegrass [1, 11]: 54% | germination rate (%) annual bluegrass [1, 12]: 54% | germination rate (%) annual bluegrass [1, 13]: 100% | germination rate (%) annual bluegrass [1, 14]: 54% | germination rate (%) annual bluegrass [1, 15]: 27% | germination rate (%) annual bluegrass [1, 16]: 0% | germination rate (%) annual bluegrass [1, 17]: inhibited the germination | germination rate (%) dandelion [2, 5]: 100% | germination rate (%) dandelion [2, 6]: 50% | germination rate (%) dandelion [2, 7]: 0% | germination rate (%) dandelion [2, 8]: 0% | germination rate (%) dandelion [2, 9]: 0% | germination rate (%) dandelion [2, 10]: 0% | germination rate (%) dandelion [2, 11]: 0% | germination rate (%) dandelion [2, 12]: 100% | germination rate (%) dandelion [2, 13]: 0% | germination rate (%) dandelion [2, 14]: 0% | germination rate (%) dandelion [2, 15]: 0% | germination rate (%) dandelion [2, 16]: 0% | germination rate (%) dandelion [2, 17]: inhibited the germination | % control of radish plants ([3]; 24-h): 100% | % control of radish plants ([3]; 72-h): 100% | % control of wheat seedlings ([4]; 24-h): 1% | % control of wheat seedlings ([4]; 72-h): 4%
